Laboratory results published in patent publication US7001913B1, “Aminopiperidine derivatives as antibacterials” (SmithKline Beecham P.L.C., priority 1999, dated 2006).

System: S. aureus Oxford, S. aureus WCUH29, S. pneumoniae 1629, S. pneumoniae N1387, S. pneumoniae ERY 2
Experiment: MIC of test compounds against various organisms
Type: cell-based
Conditions: against one or more of S. aureus Oxford
Method: The MIC (μg/ml) of test compounds against various organisms was determined: S. aureus Oxford, S. aureus WCUH29, S. pneumoniae 1629, S. pneumoniae N1387, S. pneumoniae ERY 2.

MIC: ≤ 1 µg/mL
SMILES: CCCCCCCNC1CCN(C[C@H](O)c2ccnc3ccc(OC)cc23)CC1C(N)=O (mixture of isomers) [Example 4, cis-3-(R/S)-Aminocarbonyl-4-(S/R)-heptylamino-1-[2-(R)-hydroxy-2-(6-methoxyquinolin-4-yl)]ethylpiperidine dioxalate]
